According to patent US8143254B2, “Methods for modulating ion channels” (Cornell Research Foundation, Inc., priority 2005, dated 2012):

Tests used:
Kv2.1 Y380T = target: T1, Kv2.1 Y380T (Rattus norvegicus, UniProt P15387, Y380T/Y384T); assay: TEVC of oocytes expressing Y380T mutant Kv2.1; assay type: cell-based; details: Y380T mutation in Kv2.1
T1 construct: expressed in transfected cells; host or cells: Xenopus laevis oocytes (cRNA from pGA1)
Excerpt: Kv2.1 mutants were constructed using the QuickChange Multi Site-Directed Mutagenesis Kit (Stratagene, La Jolla, Calif.). Mutant Kv2.1 genes (in the pGA1 oocyte expression vector for oocyte expression) were sequenced in their entirety to confirm appropriate mutations and check for inadvertent mutations, and then subcloned into a wild-type pGA1 backbone. For oocyte expression, Kv3.4 was in pBF1, Kv4.2 was in pRAT. cRNA transcripts were produced from SacII-linearized (Kv2.1), Mlullinearized (Kv3.4) and Not1-linearized (Kv4.2) DNA templates using the T3 (Kv2.1), SP6 (Kv3.4) and T7 (Kv4.2) mMessage mMachine kits (Ambion, Austin, Tex.). cRNA was quantified by spectrophotometry and its size integrity verified by gel electophoresis. Defolliculated stage V and VI Xenopus laevis oocytes (purchased from Nasco, Grand Island, N.Y.) were injected with 5 ng of cRNA encoding Kv2.1, Kv3.4 or Kv4.2. […]
Data analysis: Current-voltage relationships were obtained by measuring peak current during depolarizing pulses. Inhibition constants for DABCO blockers were calculated after generating a dose response curve by fitting with a logistic dose-response function y=A2+[A1−A2/1+(x/x0)^p], where A1 is the maximum response plateau, A2 is the minimum response plateau, x is drug concentrator, x0 is the IC50, and p the Hill slope. […]

Δ1-28 Kv3.4 channels = target: T2, Δ1-28 Kv3.4 channels (Homo sapiens, UniProt Q03721); assay: TEVC current-voltage relationship of Δ1-28 Kv3.4 in Xenopus oocytes; assay type: cell-based; details: 1 mM
T2 construct: expressed in transfected cells; host or cells: Xenopus oocytes (cRNA injection)
T2 sequence (Q03721 29-635): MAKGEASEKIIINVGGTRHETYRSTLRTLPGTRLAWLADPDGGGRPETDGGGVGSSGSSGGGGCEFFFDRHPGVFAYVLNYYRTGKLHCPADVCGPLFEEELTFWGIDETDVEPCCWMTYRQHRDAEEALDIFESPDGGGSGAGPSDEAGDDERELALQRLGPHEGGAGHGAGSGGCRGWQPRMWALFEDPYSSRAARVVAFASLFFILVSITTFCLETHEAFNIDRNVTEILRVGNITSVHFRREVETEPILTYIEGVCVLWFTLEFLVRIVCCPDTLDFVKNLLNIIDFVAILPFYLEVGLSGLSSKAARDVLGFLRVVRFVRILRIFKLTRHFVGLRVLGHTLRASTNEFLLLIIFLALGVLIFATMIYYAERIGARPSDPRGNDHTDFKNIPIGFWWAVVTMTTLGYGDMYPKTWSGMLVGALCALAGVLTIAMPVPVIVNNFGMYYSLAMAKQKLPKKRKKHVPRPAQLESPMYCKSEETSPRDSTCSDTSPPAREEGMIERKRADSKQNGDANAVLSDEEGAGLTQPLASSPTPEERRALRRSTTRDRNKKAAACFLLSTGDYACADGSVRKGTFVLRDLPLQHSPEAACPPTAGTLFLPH
Description: FIG. 6. Opening and block of Kv3.4 by two didabco compounds show voltage-dependency. Normalized I/V relationship for Δ1-28 Kv3.4 currents in oocytes in the absence (control) or presence as indicated of 1 mM JC279.3a or JC638.2a. Peak currents during 2 s pulses to voltages between −80 and +60 mV (protocol upper left insert) were recorded, before and after drug was washed in during successive 0.1 Hz, 2 s pulses from −80 to 0 mV until equilibrium block or opening was observed. Points are means from n=3-16 oocytes; error bars indicate SEM.
Whole-cell two-electrode voltage-clamp (TEVC) recordings were performed on X laevis oocytes expressing cloned Kv2.1, Kv3.4 or Kv4.2 using a Warner OC-725C amplifier and pClamp9 (Axon Instruments, Foster City, Calif.) software. Oocytes were bathed in a small-volume Warner oocyte bath and viewed with a Fisher dissection microscope. Bath solution for whole-cell oocyte recordings was (in mM): 96 NaCl, 4 KCl, 0.7 MgCl2, 1 CaCl2, 10 HEPES (pH 7.4); whole-cell oocyte TEVC pipettes were of 0.2-2 M resistance when filled with 3 M KCl. Experiments were performed 24-48 hours after cRNA injection. For assessment of current-voltage relationships in the absence or presence of dabco derivatives, oocytes were held at −80 mV, stepped for 2 seconds at voltages between −80 mV and +60 mV in 20 mV steps (Kv2.1) or between −80 and +50 mV in 10 mV steps (Kv3.4), then held for 500 ms at −40 mV before returning to the holding potential. For assessment of block during wash-in of dabco derivatives at a single voltage, oocytes were held at −80 mV, and repetitively stepped to 0 mV for 2 s with an interpulse interval of 10 s or 60 s as indicated. A range of concentrations of dabco or dabco derivatives were washed in via the bath solution during repetitive single-voltage pulses (after an initial period of 5 pulses with control solution to ensure current stabilization) until equilibrium block was achieved, to establish dose-responses. Inhibited currents are compared to the current at the end of 5-pulse control period, thus some bar graphs show ‘control’ current values slightly less than 1, and with an error bar, to show how much currents deviate in the absence of drug. Washout was performed after the highest concentration of blocker was washed in. […]
To investigate the mechanism of Kv channel block or opening by didabco compounds, the current-voltage relationship (I/V curve) of Δ1-28 Kv3.4 channels expressed in Xenopus oocytes was assessed using TEVC recording in the absence and presence of a didabco opener (JC279.3a, the 10 CH2-group didabco from FIG. 3) or a didabco blocker (JC638.2a, the para didabco from FIG. 4).

Q: Which results are given for c1cc(C[N+]23CCN(CC2)CC3)ccc1C[N+]12CCN(CC1)CC2 [JC638.2α, α,α′-[bis(4-aza-1-azoniabicyclo[2.2.2]octanyl)]p-xylene]?
A: IC50 (Kv2.1 Y380T): 185 ± 41 µM; slope of dose response curve (Kv2.1 Y380T): 1.3; block or opening of Δ1-28 Kv3.4 (Δ1-28 Kv3.4 channels): blocker; voltage dependence of block or opening of Kv3.4 (Δ1-28 Kv3.4 channels; attenuated at more depolarized voltages): voltage-dependent
